According to patent publication US20040138104A1, “Peptides” (priority 2003, published 2004):
Like-named read-outs stand apart in the source and are kept apart here.

Key:
PTB1B = biological target: T1, PTB1B (Homo sapiens, UniProt P18031); format: biochemical; settings: read-out: IC50 Values in μM Against Various Enzymes: PTB1B
T1 sequence (P18031 1-435): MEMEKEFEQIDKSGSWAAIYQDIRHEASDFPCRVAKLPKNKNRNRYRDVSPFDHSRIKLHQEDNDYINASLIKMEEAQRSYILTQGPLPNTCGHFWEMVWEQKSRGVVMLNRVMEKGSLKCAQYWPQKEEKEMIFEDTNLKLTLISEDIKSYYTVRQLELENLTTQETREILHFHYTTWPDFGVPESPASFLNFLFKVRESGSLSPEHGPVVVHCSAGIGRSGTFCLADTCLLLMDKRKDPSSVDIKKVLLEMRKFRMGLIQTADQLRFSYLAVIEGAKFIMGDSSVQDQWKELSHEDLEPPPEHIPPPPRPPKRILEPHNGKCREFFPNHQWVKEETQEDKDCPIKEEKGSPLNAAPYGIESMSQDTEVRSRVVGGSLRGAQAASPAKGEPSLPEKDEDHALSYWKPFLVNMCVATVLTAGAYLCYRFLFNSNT

YopH = YopH (Yersinia pestis, UniProt O68720); experiment: biochemical
Chain of YopH (O68720 1-468): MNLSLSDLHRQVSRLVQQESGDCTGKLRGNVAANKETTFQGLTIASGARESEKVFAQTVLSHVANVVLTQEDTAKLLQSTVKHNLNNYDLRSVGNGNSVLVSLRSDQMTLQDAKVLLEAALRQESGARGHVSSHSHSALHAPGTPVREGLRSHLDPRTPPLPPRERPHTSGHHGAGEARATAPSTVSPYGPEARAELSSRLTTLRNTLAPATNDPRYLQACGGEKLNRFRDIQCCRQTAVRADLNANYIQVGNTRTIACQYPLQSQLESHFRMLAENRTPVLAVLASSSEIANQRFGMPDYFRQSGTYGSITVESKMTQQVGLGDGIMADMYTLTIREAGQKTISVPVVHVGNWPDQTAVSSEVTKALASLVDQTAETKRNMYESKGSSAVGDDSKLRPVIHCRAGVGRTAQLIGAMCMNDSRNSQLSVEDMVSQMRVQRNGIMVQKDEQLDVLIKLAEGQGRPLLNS

[1] = read-out: IC50 Values in μM Against Various Enzymes: YopH

## CC(C)C[C@H](NC(=O)[C@H](Cc1ccc(OCC(=O)O)c(OCC(=O)O)c1)NC(=O)[C@H](CCC(=O)OCc1ccccc1)NC(=O)OCC1c2ccccc2-c2ccccc21)C(N)=O [TB 29]
PTB1B
  IC50: 19.4 ± 3.6 µM
YopH; [1]
  IC50: 19.4 ± 3.3 µM

## CC(C)C[C@H](NC(=O)[C@H](Cc1ccc(OCC(=O)O)cc1)NC(=O)[C@H](CCC(=O)OCc1ccccc1)NC(=O)OCC1c2ccccc2-c2ccccc21)C(N)=O [TB 26]
PTB1B
  IC50: 4.6 ± 2 µM
YopH; [1]
  IC50: 2.8 ± 1.1 µM

## CC(C)C[C@H](NC(=O)[C@H](Cc1ccc(OCC(=O)O)cc1)NC(=O)[C@H](CCC(=O)OCc1ccccc1)NC(=O)OCCc1ccccc1)C(N)=O [TB 40]
YopH
  IC50: 80 ± 8.5 µM

## CC(C)C[C@H](NC(=O)[C@H](Cc1ccc(OCC(=O)O)cc1)NC(=O)[C@H](CCC(=O)OCc1ccccc1)NC(=O)OCc1ccccc1)C(N)=O [TB 39]
PTB1B
  IC50: 72 ± 14 µM
YopH; [1]
  IC50: 119 ± 14 µM

## CC(C)C[C@H](NC(=O)[C@H](Cc1ccc(C(F)(C(=O)O)C(=O)O)cc1)NC(=O)[C@H](CCC(=O)OCc1ccccc1)NC(=O)OCC1c2ccccc2-c2ccccc21)C(N)=O [TB 34]
YopH
  IC50: 3 ± 0.7 µM
